The values below come from patent US8247552B2, “Analogs of dehydrophenylahistins and their therapeutic use” (Nereus Pharmaceuticals, Inc., priority 2002, dated 2012).

Data set [1] deals with Trichophyton rubrum. Put plainly: Antifungal susceptibility testing (NCCLS M38-A), MIC/MFC. Particulars: for antifungal potency compared with griseofulvin: dermatophyte isolates. Type of data set: cell-based. As for the experimental part: (§1) Specifically, disclosed compounds were evaluated alongside commercially available microtubulin inhibitors as well as recognized antifungal agents.
(§2) Microorganisms against which these compounds were tested included: Candida albicans, Candida glabrata, Aspergillus fumigatus, Trichophyton rubrum, Trichophyton mentagrophytes, Epidermophyton floccosum. With the exception of Candida glabrata (one isolate), two isolates of each species were tested.
(§3) The minimum lethal concentration (MLC) was determined by plating […] from the MIC concentration and each concentration above the MIC. […] When a MIC was obtained, a minimum fungicidal concentration (MFC) was determined to assess the fungistatic/fungicidal nature of the compound.

In data set [2] the test system is HT-29 human colon cells. Put plainly: Tumor cytotoxicity / cell growth inhibition assay, resazurin fluorescence, 48 h. The class given is cell-based. Particulars: for EC50: Homo sapiens.
Data set [3] relates to Trichophyton mentagrophytes. Put plainly: Antifungal susceptibility testing (NCCLS M38-A), MIC/MFC. Type of data set: cell-based. As for the experimental part:
Specifically, disclosed compounds were evaluated alongside commercially available microtubulin inhibitors as well as recognized antifungal agents. […].
as §2
Drug concentrations were 0.03-16 μg/ml for the investigational compounds, 0.015-8 μg/ml for itraconazole and griseofulvin.
The minimum lethal concentration (MLC) was determined by plating […] from the MIC concentration and each concentration above the MIC. […] When a MIC was obtained, a minimum fungicidal concentration (MFC) was determined to assess the fungistatic/fungicidal nature of the compound. […] The compound is scored as fungistatic if the cells are able to resume growth and fungicidal if no regrowth is possible because the compound had killed the organisms.

Data set [4] deals with MCF7 cells (GFP-alpha-tubulin). Put plainly: Microtubule dynamic instability in living MCF7 cells (time-lapse microscopy). The class given is cell-based, human.
For data set [5], the system named is HuVEC cells. The experiment in a line: Microtubule (tubulin) depolymerization, α-tubulin staining. Particulars: 2 μM, thirty minutes exposure.
Experimental: The plates were returned to the incubator for 2 days.
20 mM stock solutions of compounds were prepared in 100% DMSO and stored at −80° C. 400× concentrated dilutions of the compounds were prepared in 100% DMSO. 5 μl volumes of the dilutions were added to individual wells resulting in a final concentration of 20 nM. […] The plates were returned to the incubator for 30 minutes.
The cells were rinsed in dPBS before fixation in 10% (v/v) neutral buffered formalin for 10 minutes at room temperature. Following fixation, α-tubulin was visualized by indirect immunofluorescence. Specifically, the cells were permeabilized in 0.2% (v/v) triton X-100/dPBS for 10 minutes. The cells were washed prior to transferring the coverslips to a humidified chamber, the coverslips were blocked for two hours in antibody buffer [2% (w/v) BSA/0.1% (v/v) Tween 20/dPBS]. The coverslips were incubated with 50 μl of 0.1 μg/ml mouse α-tubulin (Molecular Probes) in antibody buffer for 1 hour before washing and incubation with 50 μl of 1 μg/ml goat anti-mouse FITC (Jackson ImmunoResearch Laboratories) for one hour in the dark. Finally, the cells were washed and treated with 2 μg/ml DAPI (Molecular Probes) for 10 minutes before rinsing in H2O and mounting with Vectashield (Vector Labs) mounting media. The cells were imaged using a 60× oil immersion objective on an upright microscope (Olympus BX51). The images were digitally captured using a CCD camera and Magnafire 2.0 software (Olympus). Post image processing was performed in Photoshop Elements 2.0 (Adobe) and in Microsoft Powerpoint.
Human umbilical vein endothelial cells (HuVECs; Cambrex CC2519A) were maintained at subconfluent densities in EGM-2 (Cambrex) media. […] The plates were returned to the incubator for 2 days.
Stock (20 mM) solutions of the test compounds were prepared in 100% DMSO. 400× concentrated dilutions of the compounds were prepared in 100% DMSO. 5 μl volumes of the dilutions were added to individual wells resulting in a final concentration of 200 nM. […] The plates were returned to the incubator for 30 minutes.
The cells were rinsed in dPBS before fixation in 10% (v/v) neutral buffered formalin for 10 minutes at room temperature. Following fixation, α-tubulin was visualized by indirect immunofluorescence. Specifically, the cells were permeabilized in 0.2% (v/v) triton X-100/dPBS for 10 minutes. The cells were washed prior to transferring the coverslips to a humidified chamber, the coverslips were blocked for two hours in antibody buffer (2% (w/v) BSA/0.1% (v/v) Tween 20/dPBS). The coverslips were incubated with 50 μl of 0.1 μg/ml mouse α-tubulin (Molecular Probes) in antibody buffer for 1 hour before washing and incubation with 50 μl of 1 μg/ml goat anti-mouse FITC (Jackson ImmunoResearch Laboratories) for one hour in the dark. Finally, the cells were washed and treated with 2 μg/ml DAPI (Molecular Probes) for 10 minutes before rinsing in H2O and mounting with Vectashield (Vector Labs) mounting media. The cells were imaged using a 60× oil immersion objective on an upright microscope (Olympus BX51). The images were digitally captured using a CCD camera and Magnafire 2.0 software (Olympus). Post image processing was performed in Photoshop Elements 2.0 (Adobe) and in Microsoft Powerpoint.
For data set [6], the system named is MES-SA/Dx5 (Taxol resistant) human uterine sarcoma. Put plainly: Cytotoxicity / growth inhibition in multidrug resistant uterine sarcoma cells. Type of data set: cell-based. As for the experimental part: 1) Human Uterine Sarcoma Tumor Cell Line Pair: MES-SA (Taxol Sensitive) and MES-SA/Dx5 (Taxol Resistant).
HL-60 and HL-60/MX2 cells were both seeded at 5×10^4 cells/well in 90 μl complete media into 96 well plates on the day of compound addition. […] Ten μl volumes of the 10× serial dilutions were added to the test wells in triplicate and the plates returned to the incubator for 48 hours.
Resazurin dye in medium without cells was used to determine the background, which was subtracted from the data for all experimental wells.
The multidrug resistant MES-SA/Dx5 tumor cell line was derived from the human uterine sarcoma MES-SA tumor cell line and expresses elevated P-Glycoprotein (P-gp), an ATP dependent efflux pump. […] Paclitaxel, a known substrate of the P-gp pump was included as a control.

The test system of data set [7] is Jurkat cells (human T cell leukemia line). The experiment in a line: DNA fragmentation (DNA laddering) by gel electrophoresis. Type of data set: cell-based. From the text: A late stage characteristic of apoptosis is internucleosomal DNA cleavage that results in a distinctive ladder pattern that can be visualized by gel electrophoresis.
The subject of data set [8] is MCF-7 human breast tumor. Put plainly: MCF-7 Human Breast Tumor Xenograft Model. Particulars: combination with taxotere. Type of data set: in vivo, mice. The protocol:
Animals used were (exceptions are indicated for individual studies): female nude mice (nu/nu) between 5 and 6 weeks of age (˜20 g, Harlan); group size was 9-10 mice per group unless otherwise indicated.
Female nude mice (˜20 g) were implanted s.c. with 21-day release estrogen (0.25 mg) pellets 24 hours prior to the s.c. implantation with MCF-7 tumor fragments (harvested from s.c. tumors in nude mice hosts). The study then proceeded as described for the HT-29 model, using taxotere as the standard chemotherapy agent.
In this model unless otherwise noted for the individual study, the novel compounds were injected via the intraperitoneal route daily on Days 1-5, inclusive (qdx5); taxotere was administered intravenously on Days 1, 3 and 5 (qodx3).
The doses of the compounds were administered on Days 1, 2, 3, 4, and 7; Taxotere was administered on Days 1, 3 and 7.
(In xenograft studies the graft and the host belong to different species.)

Data set [9] has as its system human hepatic P450s.
Experimental: In the recent his study, (±)-phenylahistin was treated with rat hepatic microsome or human hepatic P450s.
Data set [10] relates to Candida glabrata. Put plainly: Antifungal susceptibility testing (NCCLS M38-A), MIC/MFC. Particulars: Table 23. Type of data set: cell-based. As for the experimental part:
as §1, §2, §3

Data set [11] relates to Candida albicans. The data set is described as above. To be noted: Table 23. The class given is cell-based. As for the experimental part:
as §1, §2, §3

Setting [12] is: Table 28, 25% of the maximal mitotic block.
Where [13] appears, read: Table 29, 50% of the maximal mitotic block.

Values after ≈ are worked out from the molar mass of the structure shown. Read-outs that look alike come from different tables or passages of the source.

Consider `COc1cc(/C=c2\[nH]c(=O)/c(=C/c3nc[nH]c3C(C)(C)C)[nH]c2=O)cc(OC)c1OC` [KPU-11, tBu-ΔPLH-3,4,5-triOMe], for which the “antifungal potency compared with griseofulvin” value in data set [1] was “equivalent in potency or in some cases more potent than griseofulvin”. The “cytotoxic activity against HT-29 cells” value in [2] is “also showed activity”.

On to `CC(C)(C)c1[nH]cnc1/C=c1\[nH]c(=O)/c(=C/c2cccc(OC(F)(F)F)c2)[nH]c1=O` [KPU-80, TBu- ΔPLH—m-OCF3], for which the “activity compared with tBu-dehydroPLH” value in data set [2] is reported as “higher activity than tBu-dehydroPLH”.

For `COc1cc(OC)c(/C=c2\[nH]c(=O)/c(=C/c3nc[nH]c3C(C)(C)C)[nH]c2=O)c(OC)c1` [KPU-45, tBu-ΔPLH-2,4,6-TriOMe], the “cytotoxic activity against HT-29 cells” value in data set [2] is recorded as “also showed activity”.

Consider `C=CC(C)(C)c1[nH]cnc1/C=C1\NC(=O)[C@H](Cc2ccccc2)NC1=O` [(−)-Phenylahistin], for which the “potency versus T. rubrum” value in [1] was “significantly less potent than the other compounds”. For the same compound, the “potency versus sensitive T. mentagrophytes isolate” value in data set [3] is recorded as “weaker but more comparable to the others”.

Broadly, the EC50 is the concentration giving half of the maximal effect. As to `CC(C)(C)c1[nH]cnc1/C=c1\[nH]c(=O)/c(=C/c2ccccc2)[nH]c1=O` [compound 2421], the EC50 in data set [2] (HT-29, read-out: EC50 (M) Mean, Table 3.1, cell line not given, assay as above) came out at 2.22e-08 M. Also, the “% cytotox Mean” value in data set [2] (Table 3.1, cell line not given) is listed as 88%.

In the case of `COc1ccc(/C=C\c2cc(OC)c(OC)c(OC)c2)cc1O` [CA4, Combretastatin A4], in data set [4] (setting [12]), the “% time spent Attenuation” value was 39.50%, the “% time spent Growth” value is reported as 35.31%, the “% time spent Shortening” value is given as 25.19% and the “Freq. of (min-1) Catastrophe” value is 1.52 min⁻¹. Further, in data set [4] (setting [12]), the “Freq. of (min-1) Rescue” value was 1.90 min⁻¹, the “Mean duration (min) Attenuation” value is 0.45 min, the “Mean duration (min) Growth” value came out at 0.27 min and the “Mean duration (min) Shortening” value stood at 0.21 min. For the same compound, the “Mean rates (μm/min) Shortening” value in [4] (setting [12]) worked out at 40.21 μm/min. Moreover, the “Mean rates (μm/min) Growth” value in [4] (Table 28, concentration effecting 25% of the maximal mitotic block in MCF7 cells) is reported as 10.59 μm/min. In data set [4] (Table 28, dynamicity, 25% of the maximal mitotic block), the “Dyn. (μm/min)” value is 13.87 μm/min. Further, in [4] (setting [13]), the “% time spent Attenuation” value was 36.23%, the “% time spent Growth” value is given as 43.64%, the “% time spent Shortening” value turned out to be 20.13% and the “Dynamicity (μm/min)” value is listed as 10.91 μm/min. Also, in data set [4] (setting [13]), the “Freq. of (min-1) Catastrophe” value amounted to 1.09 min⁻¹, the “Freq. of (min-1) Rescue” value came out at 2.79 min⁻¹, the “Mean duration (min) Attenuation” value was 0.55 min and the “Mean duration (min) Growth” value came out at 0.33 min. Also, in data set [4] (setting [13]), the “Mean duration (min) Shortening” value is reported as 0.22 min and the “Mean rates (μm/min) Shortening” value is 29.88 μm/min. Besides, the “Mean rates (μm/min) Growth” value in data set [4] (Table 29, concentration effecting 50% of the maximal mitotic block in MCF7 cells) is recorded as 11.21 μm/min. The “effect on MT dynamic instability” value in [4] (concentrations effecting 25% or 50% of maximal mitotic block) is “did not have a measurable effect on MT dynamic instability”.

Regarding `CC(C)(C)c1[nH]cnc1/C=c1\[nH]c(=O)/c(=C/c2ccccc2)[nH]c1=O` [tBu-dehydrophenylahistin, 3-Z-Benzylidene-6-(5″-tert-butyl-1H-imidazol-4″-Z-ylmethylene)-piperazine-2,5-dione], in data set [2] (Table 1 data), the “cytotoxic activity in comparison with dehydrophenylahistin” value is given as about 4 times.

Consider `COc1cc2c(c(OC)c1OC)-c1ccc(OC)c(=O)cc1[C@@H](NC(C)=O)CC2` [Colchicine], for which, in [5], the “microtubule depolymerization in HuVEC cells” value is “induced microtubule depolymerization”.

Take `CC(=O)O[C@H]1C(=O)[C@@]2(C)[C@H]([C@H](OC(=O)c3ccccc3)[C@]3(O)C[C@H](OC(=O)[C@H](O)[C@@H](NC(=O)c4ccccc4)c4ccccc4)C(C)=C1C3(C)C)[C@]1(OC(C)=O)CO[C@@H]1C[C@@H]2O` [Paclitaxel]: the “times less active against resistant MES-SA/Dx5 cells” value in data set [6] (versus MES-SA, Example 11) is given as about 400 times.

Turning to `COc1ccc(/C=c2\[nH]c(=O)/c(=C/c3nc[nH]c3C(C)(C)C)[nH]c2=O)c(OC)c1OC` [KPU-17, tBu-ΔPLH-2,3,4-TriOMe], the “antifungal potency compared with griseofulvin” value in data set [1] is “equivalent in potency or in some cases more potent than griseofulvin”. Further, the “cytotoxic activity against HT-29 cells” value in data set [2] was “also showed activity”.

With phenylahistin [halimide], in data set [7], the “DNA laddering, potency compared with KPU-2” value was “much less potent”.

Consider `COc1cc([C@@H]2c3cc4c(cc3[C@@H](O[C@@H]3O[C@@H]5CO[C@@H](C)O[C@H]5[C@H](O)[C@H]3O)[C@H]3COC(=O)[C@H]23)OCO4)cc(OC)c1O` [etoposide, Etoposide], for which the “reduced susceptibility of MES-SA/DX5 cell line” value in data set [6] (versus MES-SA) was 60 fold.

For the compound `CC(C)(C)c1[nH]cnc1/C=C1\NC(=O)[C@H](Cc2ccccc2)NC1=O` [t-butyl-phenylahistin], in [6], the “potency in resistant MES-SA/DX5 versus sensitive MES-SA line” value was “only slightly reduced”. Further, in data set [1], the “antifungal potency compared with griseofulvin” value is on record as “equivalent in potency or in some cases more potent than griseofulvin”. The “effect on estimated tumor growth with taxotere” value in [8] is “significant potentiation of taxotere”. Further, in data set [5], the “microtubule depolymerization in HuVEC cells” value was “induced microtubule depolymerization”.

As for (±)-phenylahistin, in data set [9], the “metabolites detected” value is on record as “at least seven metabolites were detected”; the “share of major metabolites P1 and P3 in recovered metabolites” value is given as “more than 60%”.

For the compound `Cc1ccsc1/C=c1\[nH]c(=O)/c(=C/c2nc[nH]c2C(C)(C)C)[nH]c1=O` [KPU-29, tBu-ΔPLH-3-Me-2-thienyl], in data set [2], the “cytotoxic activity against HT-29 cells” value is “exhibited activity”.

As for `CC(C)(C)c1ocnc1/C=c1\[nH]c(=O)/c(=C/c2ccccc2F)[nH]c1=O` [compound 2475, tBu-Oxadelta-PLH-2-F], the EC50 in data set [2] (Table 3.2, HT-29 cells, 48 hours, read-out: EC50 (M) Mean) came to 4.66e-08 M.

Turning to `COc1cc(/C=c2\[nH]c(=O)/c(=C/c3nc[nH]c3C(C)(C)C)[nH]c2=O)cc(OC)c1` [KPU-16, tBu-ΔPLH-3,5-diOMe], the “cytotoxic activity against HT-29 cells” value in data set [2] is given as “showed high activity”.

`C[C@@H]1[C@H](O)[C@@H](C)/C=C/C=C/C=C/C=C/C=C/C=C/C=C/[C@H](O[C@@H]2O[C@H](C)[C@@H](O)[C@H](N)[C@@H]2O)C[C@@H]2O[C@](O)(C[C@@H](O)C[C@@H](O)[C@H](O)CC[C@@H](O)C[C@@H](O)CC(=O)O[C@H]1C)C[C@H](O)[C@H]2C(=O)O` [amphotericin B, Amphotericin B]: in data set [10], the “MFC C. glabrata” value amounted to 1 µg/mL (≈ 1.08 µM) and the “MIC C. glabrata” value worked out at 1 µg/mL (≈ 1.08 µM). Moreover, in data set [11], the “MFC C. albicans 10231” value was determined as 0.5 µg/mL (≈ 0.541 µM), the “MFC C. albicans 90028” value came out at 0.5 µg/mL (≈ 0.541 µM), the “MIC C. albicans 10231” value is 0.5 µg/mL (≈ 0.541 µM) and the “MIC C. albicans 90028” value is 0.5 µg/mL (≈ 0.541 µM).

For `COc1cccc2c1C(=O)c1c(O)c3c(c(O)c1C2=O)C[C@@](O)(C(=O)CO)C[C@@H]3O[C@H]1C[C@H](N)[C@H](O)[C@H](C)O1` [doxorubicin, Doxorubicin], the “reduced susceptibility of MES-SA/DX5 cell line” value in data set [6] (versus MES-SA) stood at 34 fold.

With `COc1ccc(F)c(/C=c2\[nH]c(=O)/c(=C/c3nc[nH]c3C(C)(C)C)[nH]c2=O)c1` [KPU-81, TBu-ΔPLH-2-F-5-OMe], the “activity compared with tBu-dehydroPLH” value in [2] is recorded as “higher activity than tBu-dehydroPLH”.
